Test results from patent US20240158438A1, “POLYPEPTIDE COMPOUND AND APPLICATION THEREOF” (CHENGDU SINTANOVO BIOTECHNOLOGY CO., LTD., priority 2021, published 2024).
Starred links: 1 amine or outer side, 2 acyl side, 3 side chain; linkers in the order of their positions; H or OH if unused. Non-standard residues stand in square brackets, D forms with d. Residues, ends and D or L forms follow the SMILES beside them. *: point of attachment. Azetidine3carboxylic = O=C(C1CN([*:1])C1)[*:2]; Pyrrolidine3carbonyl(3S) = O=C([C@H]1CCNC1)*; X6 = O=C(C1[C@H]2CC[C@H](C2)N1[*:1])[*:2]; X5 = NC12CC3CC(C1)CC(CC(=O)*)(C3)C2; dBta = N[C@H](Cc1csc2ccccc12)C(=O)O; X7 = O=C([C@@]12CNC[C@@H]1C2)*; Ac4c(3-oxa) = NC1(C(=O)O)COC1; X1 = N[C@H]1CCC[C@H]1C(=O)*; dNle = CCCC[C@@H](N)C(=O)O; dAbu = CC[C@@H](N)C(=O)O; Api = NC1(C(=O)O)CCNCC1; X4 = O=C([C@H]1CNCCO1)*; dAze = O=C(O)[C@H]1CCN1; X3 = NCC1(C(=O)*)CCC1

Columns and labels:
[1] = target: CYP 2C9 (Homo sapiens (Human), UniProt P11712); type: in vitro ADME; details: microsomes, 10 min
Protocol: (§1) Human liver microsomes containing cytochrome P450 (0.253 mg/mL protein) were incubated with test compounds (0.05-50 μM), CYPs substrates (10 μM […], 5 μM diclofenac, 30 μM mephenytoin, 5 μM dextromethorphan hydrobromide and 2 μM midazolam) and 1.0 mM NADP at 37° C. for 10 min. Naphthoflavone, sulfaphenazole, N-3-benzylnirvanol, quinidine and ketoconazole were used as reference inhibitors.

[2] = target: CYP 2D6 (Homo sapiens (Human), UniProt P10635); type: in vitro ADME; details: microsomes, 10 min
Protocol: as §1

[3] = target: CYP 2C19 (Homo sapiens (Human), UniProt P33261); type: in vitro ADME; details: microsomes, 10 min
Protocol: as §1

[4] = target: CYP 3A4 (Homo sapiens (Human), UniProt P08684); type: in vitro ADME; details: microsomes, 10 min
Protocol: as §1

[5] = target: CYP1A2 (Homo sapiens (Human), UniProt P05177); experiment: in vitro; type: in vitro ADME; details: microsomes, 10 min
Protocol: as §1

[6] = target: GHSR-1a (Homo sapiens (Human), UniProt Q92847); experiment: Agonistic activity for GHSR-1a, FLIPR calcium assay; type: cell-based; details: agonist activity assay, Flp In-CHO-GHSR Stable Pool cells, FLIPR calcium 6 kit; read-out: The activity (IC50) of polypeptide compounds for GHSR-1a
Excerpt: The use of recombinant expression of GHSR provides several advantages; for example, the receptor can be expressed in a determined cell system, so that it is easier to distinguish between the reactions of the compounds with GHSR and the reactions with other receptors. For example, cell lines such as HEK293, COS7 and CHO that […] can be used to express GHSR, and the same cell lines without expression vectors are used as controls.
The activity of GHSR-1a can be measured using different techniques, for example, by detecting the change in the intracellular conformation of GHSR, the change in G-protein coupling activity, and/or the change in intracellular messengers. Techniques such as measuring intracellular Ca^2+ are preferably used to measure the activity of GHSR-1a. Examples of techniques known in the art that can be used to measure Ca^2+ include the use of FLIPR® calcium ion assay kits, among others. The FLIPR® calcium ion assay kits use a calcium ion sensitive indicator and a masking dye to ensure that a researcher carries out high-sensitivity fluorescent screening for G protein-coupled receptors, ion channels and other calcium ion sensitive targets. This experiment used FLIPR calcium 6 assay kits and FLIPR calcium 6-QF assay kits.
• a) Cell line: Flp In-CHO-GHSR Stable Pool; • b) Complete medium: F12K+10% fetal bovine serum+1×penicillin-streptomycin (PS)+600 μg/mL hygromycin B; • c) Cell seeding medium: F12K+10% fetal bovine serum. • d) Assay buffer: 1× HBSS+20 mM HEPES. • e) […] component A: Assay buffer and component A were left at room temperature (RT), 10 mL of buffer was added to component A, and the mixture was vortexed for 1-2 min and stored at −20° C.
• a) Compound stock solutions: the powders from in-house synthesis were made into 10 mM stock solutions in DMSO according to the standard protocol. • b) Compound storage: all compounds in DMSO were stored in room temperature desiccators for short-term storage (at most 4 months). The remaining compounds were left at −20 ° C. for long-term storage.
• a) Flp In-CHO-GHSR Stable Pool cells were cultured in complete medium. • b) The cells were placed in […] cell seeding medium in a 384-well cell culture plate (Corning, 3764) at 7k cells/well and cultured overnight at 37° C. with 5% CO2. • c) 20× component A was thawed at room temperature, diluted with assay buffer to 2×, and left at RT. • d) The Petri dish was taken out of the incubator and equilibrated at room temperature for 10 min. The medium was changed to […]. After the final wash, 20 μL of buffer was kept in each well, 20 μL of 2× component A was then added to each well, and the plate was incubated at 37° C. for 3-5 s. • e) 10 μL of 5× compound was added to the 384-well cell culture plate, and data collection was immediately performed using FLIPR Tetra.
• 1) Z′ factor=1−3×(SDMax+SDMin)/(MeanMax−MeanMin); • 2) CVMax=(SDMax/MeanMax)×100%; • 3) CVMin=(SDMin/MeanMin)×100%; • 4) S/B=Singal/Background; • 5) Calculation formula for IC50: • Y=Bottom+(Top−Bottom)/(1+10^((LogIC50−X)×HillSlope)) • X: log value of compound concentration; Y: Activation % or Inhibition %

Chain of GHSR-1a (Q92847 whole entry): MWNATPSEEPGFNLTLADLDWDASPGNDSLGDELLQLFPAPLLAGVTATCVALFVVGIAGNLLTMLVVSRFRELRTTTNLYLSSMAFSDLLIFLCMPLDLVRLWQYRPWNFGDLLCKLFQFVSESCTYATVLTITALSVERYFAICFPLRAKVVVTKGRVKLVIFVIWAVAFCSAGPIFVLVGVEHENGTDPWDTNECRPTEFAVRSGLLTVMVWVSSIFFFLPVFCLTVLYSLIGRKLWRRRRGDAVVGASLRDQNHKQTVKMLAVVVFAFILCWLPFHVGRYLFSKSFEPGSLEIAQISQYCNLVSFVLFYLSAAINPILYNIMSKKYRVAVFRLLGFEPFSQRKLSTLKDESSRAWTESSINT
Chain of CYP 2C19 (P33261 whole entry): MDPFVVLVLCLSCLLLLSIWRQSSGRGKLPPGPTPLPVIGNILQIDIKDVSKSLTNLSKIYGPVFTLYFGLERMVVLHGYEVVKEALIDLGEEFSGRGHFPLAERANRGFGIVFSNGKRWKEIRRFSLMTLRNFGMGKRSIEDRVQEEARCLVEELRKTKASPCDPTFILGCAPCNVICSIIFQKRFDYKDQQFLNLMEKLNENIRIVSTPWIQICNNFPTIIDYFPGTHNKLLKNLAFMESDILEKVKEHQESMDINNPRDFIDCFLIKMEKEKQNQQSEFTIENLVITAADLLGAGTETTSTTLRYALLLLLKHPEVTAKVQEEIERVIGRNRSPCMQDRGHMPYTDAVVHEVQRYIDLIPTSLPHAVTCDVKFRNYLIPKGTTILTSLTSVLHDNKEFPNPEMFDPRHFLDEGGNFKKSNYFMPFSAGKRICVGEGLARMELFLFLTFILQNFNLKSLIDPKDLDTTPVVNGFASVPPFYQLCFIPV
Chain of CYP 3A4 (P08684 whole entry): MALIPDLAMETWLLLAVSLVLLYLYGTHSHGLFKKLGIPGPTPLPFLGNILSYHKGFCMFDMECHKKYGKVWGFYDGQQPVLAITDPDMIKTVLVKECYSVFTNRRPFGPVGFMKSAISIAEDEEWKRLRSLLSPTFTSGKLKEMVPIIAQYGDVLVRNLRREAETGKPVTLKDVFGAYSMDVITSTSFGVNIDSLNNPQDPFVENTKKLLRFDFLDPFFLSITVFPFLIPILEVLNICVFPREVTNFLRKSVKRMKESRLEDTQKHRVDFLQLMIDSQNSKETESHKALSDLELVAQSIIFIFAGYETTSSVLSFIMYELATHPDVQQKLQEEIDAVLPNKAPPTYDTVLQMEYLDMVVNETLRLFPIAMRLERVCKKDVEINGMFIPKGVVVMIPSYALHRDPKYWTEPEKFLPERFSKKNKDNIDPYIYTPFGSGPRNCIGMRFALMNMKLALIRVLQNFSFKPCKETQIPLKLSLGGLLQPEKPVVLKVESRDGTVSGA
Chain of CYP 2D6 (P10635 whole entry): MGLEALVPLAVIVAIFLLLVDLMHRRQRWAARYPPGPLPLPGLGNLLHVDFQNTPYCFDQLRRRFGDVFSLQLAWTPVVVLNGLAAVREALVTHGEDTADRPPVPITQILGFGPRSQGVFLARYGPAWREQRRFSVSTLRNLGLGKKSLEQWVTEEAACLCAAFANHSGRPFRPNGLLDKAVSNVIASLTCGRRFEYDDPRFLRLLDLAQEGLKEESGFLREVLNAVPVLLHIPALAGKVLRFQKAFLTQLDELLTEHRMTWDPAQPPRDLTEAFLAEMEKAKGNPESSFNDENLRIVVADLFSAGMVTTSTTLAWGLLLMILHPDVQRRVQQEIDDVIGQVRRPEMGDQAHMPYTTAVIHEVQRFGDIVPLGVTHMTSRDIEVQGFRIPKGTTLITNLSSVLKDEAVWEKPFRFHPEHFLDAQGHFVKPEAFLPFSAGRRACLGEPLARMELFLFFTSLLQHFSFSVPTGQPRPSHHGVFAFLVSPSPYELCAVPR
Chain of CYP 2C9 (P11712 whole entry): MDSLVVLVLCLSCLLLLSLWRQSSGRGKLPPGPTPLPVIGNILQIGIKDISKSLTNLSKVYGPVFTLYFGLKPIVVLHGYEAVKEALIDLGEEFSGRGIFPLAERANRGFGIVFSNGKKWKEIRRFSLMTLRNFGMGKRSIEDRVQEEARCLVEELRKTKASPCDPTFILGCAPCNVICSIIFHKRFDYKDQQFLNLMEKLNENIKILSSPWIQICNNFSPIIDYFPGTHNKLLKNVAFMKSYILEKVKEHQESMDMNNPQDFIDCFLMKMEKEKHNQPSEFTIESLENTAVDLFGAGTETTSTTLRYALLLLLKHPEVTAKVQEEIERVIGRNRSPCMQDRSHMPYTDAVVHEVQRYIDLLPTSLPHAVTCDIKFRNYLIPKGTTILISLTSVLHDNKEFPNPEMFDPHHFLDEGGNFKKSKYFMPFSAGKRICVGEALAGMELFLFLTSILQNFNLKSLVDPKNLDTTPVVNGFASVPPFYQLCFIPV
Chain of CYP1A2 (P05177 whole entry): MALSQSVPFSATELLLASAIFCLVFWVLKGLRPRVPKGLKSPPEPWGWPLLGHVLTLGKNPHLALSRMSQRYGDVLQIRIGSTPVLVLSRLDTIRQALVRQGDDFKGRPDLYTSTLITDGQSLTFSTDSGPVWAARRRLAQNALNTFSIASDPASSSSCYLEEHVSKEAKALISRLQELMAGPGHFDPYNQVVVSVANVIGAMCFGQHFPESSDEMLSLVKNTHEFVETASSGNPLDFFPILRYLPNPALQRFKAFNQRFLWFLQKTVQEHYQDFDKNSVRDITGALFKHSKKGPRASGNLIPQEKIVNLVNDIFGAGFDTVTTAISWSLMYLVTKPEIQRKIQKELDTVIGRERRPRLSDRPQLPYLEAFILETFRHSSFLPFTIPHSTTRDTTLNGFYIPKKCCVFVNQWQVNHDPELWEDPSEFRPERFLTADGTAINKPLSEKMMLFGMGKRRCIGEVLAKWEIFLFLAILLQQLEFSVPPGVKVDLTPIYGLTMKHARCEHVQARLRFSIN

Compound	IC50 [6]	also measured
CC[C@@H](N)C(=O)N[C@H](Cc1csc2ccccc12)C(=O)N[C@H](Cc1c[nH]c2ccccc12)C(=O)N[C@@H](Cc1ccccc1)C(=O)NC1(C(N)=O)CCNCC1 [Compound 2] (H-[dAbu][dBta][dW]F[Api]-NH2)	0.0035 µM	IC50 [1]: > 50 µM; IC50 [2]: > 50 µM; IC50 [3]: > 50 µM; IC50 [4]: 20 µM; IC50 [5]: > 50 µM
NCCCC[C@@H](NC(=O)[C@H](Cc1ccccc1)NC(=O)[C@@H](Cc1c[nH]c2ccccc12)NC(=O)[C@@H](Cc1csc2ccccc12)NC(=O)[C@H]1CCN1)C(N)=O [Compound 55] (H-[dAze][dBta][dW]F[dK]-NH2)	0.02 µM	
NCCCC[C@@H](NC(=O)[C@H](Cc1ccccc1)NC(=O)[C@@H](Cc1c[nH]c2ccccc12)NC(=O)[C@@H](Cc1csc2ccccc12)NC(=O)[C@H]1CNCCO1)C(N)=O [Compound 57] (X4-[dBta][dW]F[dK]-NH2)	0.0134 µM	
NCCCC[C@@H](NC(=O)[C@H](Cc1ccccc1)NC(=O)[C@@H](Cc1c[nH]c2ccccc12)NC(=O)[C@@H](Cc1csc2ccccc12)NC(=O)CC12CC3CC(CC(N)(C3)C1)C2)C(N)=O [Compound 58] (X5-[dBta][dW]F[dK]-NH2)	0.104 µM	
NCCCC[C@@H](NC(=O)[C@H](Cc1ccccc1)NC(=O)[C@@H](Cc1c[nH]c2ccccc12)NC(=O)[C@@H](Cc1csc2ccccc12)NC(=O)C1N[C@@H]2CC[C@H]1C2)C(N)=O (stereo partly drawn) [Compound 59] (H-[X6][dBta][dW]F[dK]-NH2)	0.0168 µM	
NCCCC[C@@H](NC(=O)[C@H](Cc1ccccc1)NC(=O)[C@@H](Cc1c[nH]c2ccccc12)NC(=O)[C@@H](Cc1csc2ccccc12)NC(=O)[C@@]12CNC[C@@H]1C2)C(N)=O [Compound 60] (X7-[dBta][dW]F[dK]-NH2)	0.0224 µM	
N=C(N)NCCC[C@@H](NC(=O)[C@H](Cc1ccccc1)NC(=O)[C@@H](Cc1c[nH]c2ccccc12)NC(=O)[C@@H](Cc1csc2ccccc12)NC(=O)[C@@H]1CCC[C@@H]1N)C(N)=O [Compound 61] (X1-[dBta][dW]F[dR]-NH2)	0.0205 µM	
N=C(N)NCCC[C@@H](NC(=O)[C@H](Cc1ccccc1)NC(=O)[C@@H](Cc1c[nH]c2ccccc12)NC(=O)[C@@H](Cc1csc2ccccc12)NC(=O)C1(CN)CCC1)C(N)=O [Compound 62] (X3-[dBta][dW]F[dR]-NH2)	0.0303 µM	
N=C(N)NCCC[C@@H](NC(=O)[C@H](Cc1ccccc1)NC(=O)[C@@H](Cc1c[nH]c2ccccc12)NC(=O)[C@@H](Cc1csc2ccccc12)NC(=O)C1CNC1)C(N)=O [Compound 63] (Azetidine3carboxylic-[dBta][dW]F[dR]-NH2)	0.027 µM	
N=C(N)NCCC[C@@H](NC(=O)[C@H](Cc1ccccc1)NC(=O)[C@@H](Cc1c[nH]c2ccccc12)NC(=O)[C@@H](Cc1csc2ccccc12)NC(=O)C1(N)COC1)C(N)=O [Compound 64] (H-[Ac4c(3-oxa)][dBta][dW]F[dR]-NH2)	0.0381 µM	
N=C(N)NCCC[C@@H](NC(=O)[C@H](Cc1ccccc1)NC(=O)[C@@H](Cc1c[nH]c2ccccc12)NC(=O)[C@@H](Cc1csc2ccccc12)NC(=O)[C@H]1CCN1)C(N)=O [Compound 65] (H-[dAze][dBta][dW]F[dR]-NH2)	0.0343 µM	
N=C(N)NCCC[C@@H](NC(=O)[C@H](Cc1ccccc1)NC(=O)[C@@H](Cc1c[nH]c2ccccc12)NC(=O)[C@@H](Cc1csc2ccccc12)NC(=O)[C@H]1CCNC1)C(N)=O [Compound 66] ({Pyrrolidine3carbonyl(3S)}-[dBta][dW]F[dR]-NH2)	0.012 µM	
N=C(N)NCCC[C@@H](NC(=O)[C@H](Cc1ccccc1)NC(=O)[C@@H](Cc1c[nH]c2ccccc12)NC(=O)[C@@H](Cc1csc2ccccc12)NC(=O)[C@H]1CNCCO1)C(N)=O [Compound 67] (X4-[dBta][dW]F[dR]-NH2)	0.0233 µM	
N=C(N)NCCC[C@@H](NC(=O)[C@H](Cc1ccccc1)NC(=O)[C@@H](Cc1c[nH]c2ccccc12)NC(=O)[C@@H](Cc1csc2ccccc12)NC(=O)CC12CC3CC(CC(N)(C3)C1)C2)C(N)=O [Compound 68] (X5-[dBta][dW]F[dR]-NH2)	0.33 µM	
N=C(N)NCCC[C@@H](NC(=O)[C@H](Cc1ccccc1)NC(=O)[C@@H](Cc1c[nH]c2ccccc12)NC(=O)[C@@H](Cc1csc2ccccc12)NC(=O)C1N[C@@H]2CC[C@H]1C2)C(N)=O (stereo partly drawn) [Compound 69] (H-[X6][dBta][dW]F[dR]-NH2)	0.0402 µM	
N=C(N)NCCC[C@@H](NC(=O)[C@H](Cc1ccccc1)NC(=O)[C@@H](Cc1c[nH]c2ccccc12)NC(=O)[C@@H](Cc1csc2ccccc12)NC(=O)[C@@]12CNC[C@@H]1C2)C(N)=O [Compound 70] (X7-[dBta][dW]F[dR]-NH2)	0.0397 µM	
NC(=O)[C@H](Cc1ccccc1)NC(=O)[C@@H](Cc1c[nH]c2ccccc12)NC(=O)[C@@H](Cc1csc2ccccc12)NC(=O)C1CNC1 [Compound 73]	0.0159 µM	
NC(=O)[C@H](Cc1ccccc1)NC(=O)[C@@H](Cc1c[nH]c2ccccc12)NC(=O)[C@@H](Cc1csc2ccccc12)NC(=O)C1(N)COC1 [Compound 74] (H-[Ac4c(3-oxa)][dBta][dW]F-NH2)	0.0173 µM	
NC(=O)[C@H](Cc1ccccc1)NC(=O)[C@@H](Cc1c[nH]c2ccccc12)NC(=O)[C@@H](Cc1csc2ccccc12)NC(=O)[C@H]1CCN1 [Compound 75] (H-[dAze][dBta][dW]F-NH2)	0.0124 µM	
NC(=O)[C@H](Cc1ccccc1)NC(=O)[C@@H](Cc1c[nH]c2ccccc12)NC(=O)[C@@H](Cc1csc2ccccc12)NC(=O)CC12CC3CC(CC(N)(C3)C1)C2 [Compound 78]	0.0784 µM	
NC(=O)[C@H](Cc1ccccc1)NC(=O)[C@@H](Cc1c[nH]c2ccccc12)NC(=O)[C@@H](Cc1csc2ccccc12)NC(=O)C1N[C@@H]2CC[C@H]1C2 (stereo partly drawn) [Compound 79]	0.0331 µM	
CCCC[C@@H](NC(=O)[C@@H](CCCCN)NC(=O)[C@H](Cc1ccccc1)NC(=O)[C@@H](Cc1c[nH]c2ccccc12)NC(=O)[C@@H](Cc1csc2ccccc12)NC(=O)[C@H](N)CC)C(N)=O [Compound 81] (H-[dAbu][dBta][dW]F[dK][dNle]-NH2)	0.0072 µM	
CCCC[C@@H](NC(=O)[C@@H](CCCCN)NC(=O)[C@H](Cc1ccccc1)NC(=O)[C@@H](Cc1c[nH]c2ccccc12)NC(=O)[C@@H](Cc1csc2ccccc12)NC(=O)[C@H](N)CC)C(=O)N[C@H](C)C(N)=O [Compound 82] (H-[dAbu][dBta][dW]F[dK][dNle][dA]-NH2)	0.009 µM	
CCCC[C@@H](NC(=O)C1(NC(=O)[C@H](Cc2ccccc2)NC(=O)[C@@H](Cc2c[nH]c3ccccc23)NC(=O)[C@@H](Cc2csc3ccccc23)NC(=O)[C@H](N)CC)CCNCC1)C(N)=O [Compound 83] (H-[dAbu][dBta][dW]F[Api][dNle]-NH2)	0.0122 µM	
CCCC[C@@H](NC(=O)C1(NC(=O)[C@H](Cc2ccccc2)NC(=O)[C@@H](Cc2c[nH]c3ccccc23)NC(=O)[C@@H](Cc2csc3ccccc23)NC(=O)[C@H](N)CC)CCNCC1)C(=O)N[C@H](C)C(N)=O [Compound 84] (H-[dAbu][dBta][dW]F[Api][dNle][dA]-NH2)	0.0067 µM	
